Measurements as given in PubChem BioAssay (NCI).
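A five-concentration, 48-hour dose response in 96-well plates underlies each endpoint, interpolated linearly between surrounding concentrations. TGI is the concentration that stops growth completely.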

Columns and labels:
Test in all cases: NCI anticancer screen, dose series, 48 h
[1] = system: NCI-H522 lung
[2] = system: HS 578T breast
[3] = system: SR leukemia
[4] = system: OVCAR-5 ovarian
[5] = system: HCC-2998 colon
[6] = system: KM12 colon
[7] = system: U251 CNS
[8] = system: MCF7 breast
[9] = system: DU-145 prostate
[10] = system: OVCAR-3 ovarian
[11] = system: HCT-116 colon
[12] = system: EKVX NSCLC

Measured: TGI

O=C1CC2(CCNCC2)C(=O)N1N1CCCCC1
> 100 µM: all assays above
